What was measured:
[1] = Dynamic moisture sorption assessment; type: physicochemical
Procedure: Dynamic Moisture Sorption Assessment
Dynamic moisture sorption (DMS) assessment was performed at 25° C. using a VTI atmospheric microbalance, SGA-100 system (VTI Corp., Hialeah, Fla. 33016). A sample size of approximately 5-10 mg was used and the humidity was set at the ambient value at the start of the analysis. A typical DMS analysis consisted of three scans: ambient to 2% relative humidity (RH), 2% RH to 90% RH, 90% RH to 5% RH at a scan rate of 5% RH/step. The mass was measured every two minutes and the RH was changed to the next value (±5% RH) when the mass of the sample was stable to within 0.02% for 5 consecutive points.

[2] = Solid state stability assessment (40° C. and 75% RH); type: physicochemical; conditions: three months, open glass vials
Procedure: Solid State Stability Assessment
Samples of the crystalline compound of Form I, prepared according to the process of Example 3, were stored in multiple open glass vials at 40° C. and 75% RH. At specific intervals, the contents of a representative vial was removed and analyzed by DSC, TGA, PXRD, and by HPLC for chemical purity.

[3] = Thermal gravimetric analysis (TGA); type: physicochemical; conditions: heating rate 10° C./min
Procedure: Thermogravimetric analysis (TGA) was performed using a TA Instruments Model Q-500 module. Data were collected and analyzed using TA Instruments Thermal Advantage for Q Series™ software. A sample weighing about 2 mg was placed in an aluminum pan on a platinum cradle and scanned from ambient temperature to about 300° C. with a linear heating rate of 10° C./min. The balance and furnace chambers were purged with nitrogen during use.

[4] = Stability to milling of particles; type: physicochemical; conditions: milled from mean particle size about 470 microns to about 15, 22 or 29 microns
[5] = tested on: Caco-2 cell monolayer; conditions: human, Caco-2, 1 h
Procedure: In Vitro Model of Oral Bioavailability: Caco-2 Permeation Assay
The Caco-2 permeation assay was performed to model the ability of test compounds to pass through the intestine and get into the blood stream after oral administration. The rate at which test compounds in solution permeate a cell monolayer designed to mimic the tight junction of human small intestinal monolayers was determined.
Caco-2 (colon, adenocarcinoma; human) cells were obtained from ATCC (American Type Culture Collection; Rockville, Md.). For the permeation study, cells were seeded at a density of 63,000 cells/cm^2 on pre-wetted transwells polycarbonate filters (Costar; Cambridge, Mass.). A cell monolayer was formed after 21 days in culture. Following cell culture in the transwell plate, the membrane containing the cell monolayer was detached from the transwell plate and inserted into the diffusion chamber (Costar; Cambridge, Mass.). The diffusion chamber was inserted into the heating block which was equipped with circulating external, thermostatically regulated 37° C. water for temperature control. […]
The permeation study was performed with test compound concentrations at 100 μM and with ^14C-mannitol to monitor the integrity of the monolayer. […] Samples were analyzed by HPLC or liquid scintillation counting for test compound and mannitol concentrations. The permeation coefficient (Kp) in cm/sec was calculated.

| weight change (moisture sorption) ([1]; 2% to 90% RH, 25° C./room temperature) | weight change (moisture sorption) ([1]; critical humidity range of 40% to 75% RH) | change in DSC, TGA, PXRD after storage [2] | onset of degradation (TGA) [3] | changes by DSC, TGA or PXRD after milling [4] | permeation coefficient Kp [5] | Structure (SMILES) |
| --- | --- | --- | --- | --- | --- | --- |
| less than 0.25% | less than 0.1% | no detectable changes | above 240 °C | no changes detectable | – | COC(=O)N1CCC(CN2CCC(CNC(=O)c3cccc4[nH]c(C(C)C)nc34)CC2)CC1 [Form I, 4-(4-{[(2-isopropyl-1H-benzoimidazole-4-carbonyl)amino]methyl}-piperidin-1-ylmethyl)piperidine-1-carboxylic acid methyl ester] |
| – | – | – | – | – | greater than 50×10^−6 cm/sec | COC(=O)N1CCC(CN2CCC(CNC(=O)c3cccc4[nH]c(C(C)C)nc34)CC2)CC1 [compound of the invention, 4-(4-{[(2-isopropyl-1H-benzoimidazole-4-carbonyl)amino]methyl}-piperidin-1-ylmethyl)piperidine-1-carboxylic acid methyl ester] |

Reference: patent US8288550B2, “Crystalline form of a benzimidazole-carboxamide medicinal compound” (Theravance, Inc., priority 2005, dated 2012)
